Experimental data reported in patent publication US6340703B1, “Treatment or prevention of osteoporosis” (Novogen, Inc., priority 1997, dated 2002).
Each block holds one compound with its values, some of them ahead of it.

Assays:
estrogen receptors = conditions: relative to 17p-estradiol 100; cited from earlier work
post-menopausal women [1] = test: Greene Score for menopausal symptoms, 3 month study (Example 4); format: in vivo, human; conditions: 15 mg or 60 mg daily for 3 months, compared to placebo control group
Method: A group of 36 post-menopausal women experiencing menopausal symptoms were treated with a composition containing either 15 mg daidzein or 60 mg daidzein administered on a daily basis for 3 months.

bone resorption = conditions: Tobe et al 1997; cited from earlier work
[2] = pharmacokinetic study of formononetin following oral administration; format: in vivo; conditions: blood; human, oral 9.3 mg formononetin; read-out: half life in the blood stream (converted)
Method: A pharmacokinetic study involving 16 human patients aged between 18 and 40 was conducted, to determine the pharmacokinetics of formononetin following oral administration. Each patient was orally administered 9.3 mg of formononetin with 200 ml of purified water and maintained a low isoflavone diet for one week prior to, and during the study. Blood samples were taken at 0, 0.25, 0.5, 0.75, 1.0, 1.5, 2.0, 2.5, 3, 4, 5, 6, 8, 10 and 12 and 24 hours post administration, and analysed for formononetin concentration.

post-menopausal women [3] = test: Greene Score for menopausal symptoms, 60 mg formononetin (Example 6); format: in vivo, human; conditions: 60 mg daily for three months, relative to a control group
Method: 15 post-menopausal women who are experiencing menopausal systems are each administered 60 mg formononetin daily for three months.

post-menopausal women [4] = test: bone density and bone turnover markers in high risk group for osteoporosis (Example 6); format: in vivo, human; conditions: 60 mg daily for three months, preliminary results
Method: A similar study involving 10 post-menopausal women in a high risk group for osteoporosis were also administered 60 mg formononetin daily for three months.

post-menopausal women [5] = test: six month double-blind placebo-controlled study of bone density and bone resorption markers (Example 7); format: in vivo, human; conditions: 25 mg, 50 mg or 75 mg daily, six months, with 1200 mg calcium per day
Method: The second study (double-blind, placebo-controlled) involved a six month study of the effects of phytoestrogen formononetin on bone resorption markers in twenty post-menopausal women. The aim of the study was to evaluate the efficacy of a defined daily quantity of isoflavone at 25 mg, 50 mg or 75 mg on bone resorption makers in post menopausal women and compare these to normal controls The effects of isoflavones on endometrial thickness, circulatory lipids and coagulation factors were also evaluated. Subjects were also given supplemental calcium in a dose of 1200 mg per day.

endometrial cancer cells = conditions: Markiewicz et al 1993; potentiated cancer cell growth; cited from earlier work

Compound: COc1ccc(-c2coc3cc(O)cc(O)c3c2=O)cc1 [biochanin, reference compound]
relative estrogenicity (estrogen receptors): 0.07

Compound: O=c1c(-c2ccc(O)cc2)coc2cc(O)ccc12 [daidzein, 7,4-dihydroxy isoflavone]
Greene Score for menopausal symptoms (post-menopausal women [1]): significant decrease | relative estrogenicity (estrogen receptors): 0.09 | effect on bone resorption (bone resorption): stimulates bone resorption

half-life [2]: ~20 h
Compound: COc1ccc(-c2coc3cc(O)ccc3c2=O)cc1 [formononetin]
Greene Score for menopausal symptoms (post-menopausal women [1]): significant decrease | Greene Score for menopausal symptoms (post-menopausal women [3]): significant decrease | protection against osteoporosis by bone density and bone turnover markers (post-menopausal women [4]): protection against osteoporosis | bone density at three sites of the forearm (post-menopausal women [5]): significant improvement in bone density | relative estrogenicity (estrogen receptors): 0.01

Compound: O=c1c(-c2ccc(O)cc2)coc2cc(O)cc(O)c12 [genistein]
estrogen effect on endometrial cancer cells (endometrial cancer cells): exhibited an estrogen effect on endometrial cancer cells
